Measured values from patent US20040054010A1, “Endosulfan formulation and methods of use thereof” (priority 2000, published 2004).
Counter-ions that a name gives are not always drawn. Like-named read-outs stand apart in the source and are kept apart here.

How the values were obtained:
[1] = system: Musca domestica (house fly); details: topical application in acetone, cited from earlier work
Mice = details: ingestion, Dorough et al., 1978; cited from earlier work
Rats [2] = details: ingestion, Goebel et al., 1982; cited from earlier work
Rats [3] = experiment: Acute toxicity after ingestion by rats; assay type: in vivo; details: rats and mice (Table 1)
Excerpt: A comparison of the acute toxicity of the isomers and the metabolite endosulfan sulfate after ingestion by rats and mice is shown in Table 1. […] Most studies investigating the chronic toxicity of endosulfan in mammals have not differentiated between the isomers. An exception is the neurotoxic action of endosulfan that has been attributed to the alpha-isomer.

Helicoverpa zea = details: topical application in acetone; Walfenbarger and Guerra, 1972; cited from earlier work
Heliothis virescens = details: topical application in acetone; Walfenbarger and Guerra, 1972; cited from earlier work
[4] = system: GABA-gated chloride channel; details: Abalis et al., 1985, 1986; Gant et al., 1987; cited from earlier work
[5] = Singh et al., 1991, cited from earlier work

| SMILES | LD50 ([1]; Barnes and Ware, 1965) [µg/g] | LD50 ([1]; Lindquist and Dahm, 1957) [μg · fly^−1] | LD50 (Mice) [mg/kg] | LD50 (Rats [2]) [mg/kg] | acute toxicity relative to the beta-isomer (Rats [3]) | LD50 (Helicoverpa zea) [µg/g] | LD50 (Heliothis virescens) | potency at inhibiting GABA-induced chloride flux relative to the beta-isomer [4] | susceptibility to photolysis relative to the alpha-isomer [5] | vulnerability to chemical hydrolysis relative to the alpha-isomer ([5]; neutral and alkali pH) |
| --- | --- | --- | --- | --- | --- | --- | --- | --- | --- | --- |
| O=S1OC[C@@H]2[C@H](CO1)[C@@]1(Cl)C(Cl)=C(Cl)[C@]2(Cl)C1(Cl)Cl (stereo partly drawn) [alpha-endosulfan] | 5.5 | 0.14 | 11 | 76 | approximately four fold higher | 630 | high* | much more potent |  |  |
| O=S1OC[C@@H]2[C@H](CO1)[C@]1(Cl)C(Cl)=C(Cl)[C@]2(Cl)C1(Cl)Cl (stereo partly drawn) [beta-endosulfan] | 9.0 | 0.19 | 36 | 240 |  | 4140 | 4960 µg/g |  | over twice as susceptible | approximately 25% |
| O=S1(=O)OCC2C(CO1)C1(Cl)C(Cl)=C(Cl)C2(Cl)C1(Cl)Cl (stereo not shown) [endosulfan sulfate] | 9.5 |  | 8 | 76 | approximately four fold higher | 820 | high* |  |  |  |
